Source: patent publication EP2805705B1, “Packaging with one or more administration units comprising a sodium salt of (R)-3-[6-amino-pyridin-3-yl]-2-(1-cyclohexyl-1 H-imidazol-4-yl)-propionic acid” (IP Gesellschaft für Management mbH, priority 2013, dated 2014)

Legend:
Format in all cases: physicochemical
[1] = Dynamic vapor sorption (DVS), SPS11-10µ, one cycle at 25 °C; conditions: DVS isotherm at 25 °C
Procedure: (§1) Example 7: Dynamic vapor sorption (DVS) of (R)-3-[6-amino-pyridin-3-yl]-2-(1-cyclohexyl-1 H-imidazol-4-yl)-propionic acid sodium salt monohydrate: Moisture sorption/desorption isotherms were recorded on a SPS11-10µ from Projekt Messtechnik (Ulm, Germany). One cycle was run at 25 °C, in which the sample was first stepwise decreased to 0% RH and then the relative humidity was stepwise increased from 0 to 95% and the weight of the sample was measured. Typical total measurement times for both cycles were about 20 to 30 hours. The measured data for the (R)-3-[6-amino-pyridin-3-yl]-2-(1-cyclohexyl-1 H-imidazol-4-yl)-propionic acid sodium salt monohydrate as prepared in Examples 2 or 3 are shown in the following table: DVS Isotherm at 25 °C:
(§2) Example 12: DVS, Comparison Experiment: (R)-3-[6-amino-pyridin-3-yl]-2-(1-cyclohexyl-1 H-imidazol-4-yl)-propionic acid as prepared in Example 1 was used for the measurement. The measurement was performed as disclosed in Example 7 with (R)-3-[6-amino-pyridin-3-yl]-2-(1-cyclohexyl-1 H-imidazol-4-yl)-propionic acid (free acid, amorphous) and the received data are shown in the following table: DVS Isotherm at 25 °C
as §1, with “(DVS):” for “(DVS) of (R)-3-[6-amino-pyridin-3-yl]-2-(1-cyclohexyl-1 H-imidazol-4-yl)-propionic acid sodium salt monohydrate:”, “Room humidity (RH)” for “RH”, “dihydrate” for “monohydrate”, “Example” for “Examples 2 or”, “isotherm” for “Isotherm”, “25°C:” for “25 °C:”
as §2, with “9:” for “12:”

[2] = Chiral stability on storage as a solid at 40 °C and 75 % RH (chiral HPLC)
Procedure: Example 8: Chiral stability: Representative samples of the crystalline sodium salt of (R)-3-[6-amino-pyridin-3-yl]-2-(1-cyclohexyl-1 H-imidazol-4-yl)-propionic acid sodium salt dihydrate as prepared in Example 3 were stored as a solid under the conditions (A) and (B): (A) 40 °C and 75 % RH 2 weeks; (B) 40 °C and 75 % RH 4 weeks: Results are shown in the following table:
Under the storage conditions the samples remain stable. […] The purity was determined by chiral HPLC on a HPLC system containing a Quaternary HPLC pump (e.g. HP 1100), an auto sampler, an UV absorbance detector (e.g. DAD Agilent Technologies or other adequate HPLC-System) and a computer data acquisition system with suitable software (e.g. Dionex-Chromeleon). A Zorbax SB_CN (4.6 x 100 mm, 3.5 µlτ ? ), column was used as stationary phase and two mobile phases A (975 mL water, 25 mL methanol, 1 mL perchloric acid) and B (975 mL methanol, 25 mL water) were used as mobile phases. The flow rate was set to a value of 1.0 mL/minute and the oven temperature was set to 15°C. Detection was performed by absorbance of the compounds at 236 nm (UV) (bandwidth: 4 nm) and reference wavelength was set to 450 nm (bandwidth: 50 nm). Typical total run times were in the range of about 10 minutes. For sample preparation 20 mg of the substance were accurately weighed into a 10 ml volumetric flask and dissolved and diluted to volume with solvent (acetonitrile/water 90:10 VN). Afterwards 1 ml of this solution was transferred to a 10 mL volumetric flask and then diluted to volume with water. For the HPLC analysis 5 µl of the sample were injected into the system. Gradient used: 0 min (time elapsed) 0% mobile phase B, 1 min 0% mobile phase B, 4 min 53% mobile phase B, 6 min 95% mobile phase B, 7 min 95% mobile phase B, 7.5 min 0% mobile phase B and after 10 min 0% mobile phase B. Enanatiomeric excess was determined by chiral HPLC on a HPLC system containing a Quaternary HPLC pump (e.g. HP 1100), an auto sampler, an UV absorbance detector (e.g. DAD Agilent Technologies or other adequate HPLC-System) and a computer data acquisition system with suitable software (e.g. Dionex-Chromeleon). A Chirobiotic R, Supelco (Astec) (4.6 x 250mm; 5µηη) column was used as stationary phase and a solution of 800 mL water, 1200 mL acetonitrile and 1.0 g ammoniumacetate was used as mobile phase. The flow rate was set to a value of 1.5 mL/minute and the oven temperature was set to 45°C. Detection was performed by absorbance of the compounds at 236 nm (UV) (bandwidth: 8 nm) and reference wavelength was set to 450 nm (bandwidth: 50 nm). Typical total run times were in the range of about 15 minutes. For sample preparation 50 mg of the substance were accurately weighed into a 10 mL volumetric flask and dissolved and diluted to volume with solvent (acetonitrile/water 50:50). For the HPLC analysis 5 µí of the sample were injected into the system. Gradient used: Isograt (15 minutes 100% mobile phase A).
Example 10: Chiral stability; Comparison Experiment: (R)-3-[6-amino-pyridin-3-yl]-2-(1-cyclohexyl-1 H-imidazol-4-yl)-propionic acid as prepared in Example 1 was used for the measurement. Representative samples of the compound (R)-3-[6-amino-pyridin-3-yl]-2-(1-cyclohexyl-1 H-imidazol-4-yl)-propionic acid as prepared in Example 1 were stored as a solid under the conditions (A) and (B) as defined in Example 8.

[3] = Determination of solubility in a mixture of acetone and water (4:1, by volume); conditions: for Solubility [g in 100 g of solvent]: acetone and water (4:1, by volume); for solubility compared with polymorph 1: result in words
Procedure: Determination of solubility: For the determination of the solubility in a mixture of acetone and water (4:1, by volume), samples of 0.5 mg to 50 mg of the test substances were suspended in a defined amount of the solvent (800 mg to 1200 mg) in screw cap vials with a magnetic stirring bar, which were placed in a temperature-controlled multiple stirring device equipped for transmission measurement (Avantium Crystal 16). With stirring at 700 rpm, the vials were cooled from room temperature to 0 °C and then heated to 60 °C with a heating rate of 3 °C/h, kept at 60 °C for 2 h and cooled again to 0 °C with a cooling rate of 3 °C/h. By means of transmission measurement it was determined whether the sample was dissolved (100 % transmission), or crystals were present. For polymorph 1 ({drug5b}), polymorph 2 ({drug5c}), hydrate 1 ({drug5e}) and hydrate 2 ({drug5f}) of compound (V) the following solubilities in a mixture of acetone and water (4:1, by volume) were determined.

[4] = Dynamic vapor sorption (DVS), DVS-1 instrument, two cycles at 25 °C; conditions: for weight increase in the sorption step: 25 °C

Nc1ccc(C[C@@H](C(=O)[O-])c2cn(C3CCCCC3)cn2)cn1.O.O.[Na+] [(R)-3-[6-amino-pyridin-3-yl]-2-(1-cyclohexyl-1 H-imidazol-4-yl)-propionic acid sodium salt dihydrate]
Change In Mass (%) Desorption ([1]; Target RH 0.3 %): -0.1% | Change In Mass (%) Desorption ([1]; Target RH 10.0 %): 0.0% | Change In Mass (%) Sorption ([1]; Target RH 10.0 %): 0.0% | Change In Mass (%) Sorption ([1]; Target RH 20.0 %): 0.0% | Change In Mass (%) Desorption ([1]; Target RH 20.1 %): 0.0% | Change In Mass (%) Sorption ([1]; Target RH 30.0 %): 0.0% | Change In Mass (%) Desorption ([1]; Target RH 30.1 %): 0.0% | Change In Mass (%) Sorption ([1]; Target RH 40.0 %): 0.0% | Change In Mass (%) Sorption ([1]; Target RH 50.0 %): 0.0% | Change In Mass (%) Sorption ([1]; Target RH 60.0 %): 0.1% | Change In Mass (%) Sorption ([1]; Target RH 70.1 %): 0.71% | Change In Mass (%) Sorption ([1]; Target RH 75.0 %): 0.8% | Change In Mass (%) Sorption ([1]; Target RH 80.0 %): 2.1% | Change In Mass (%) Sorption ([1]; Target RH 85.1 %): 2.7% | Change In Mass (%) Sorption ([1]; Target RH 90.1 %): 18.8% | Change In Mass (%) Sorption ([1]; Target RH 94.9 %): 51.8% | Enantiomeric excess ([2]; Storage condition (A) 40 °C and 75 % RH 2 weeks, stored as a solid): 99.6% | Enantiomeric excess ([2]; Storage condition (B) 40 °C and 75 % RH 4 weeks, stored as a solid): 99.5% | Enantiomeric excess ([2]; at the beginning): 99.6%

Nc1ccc(C[C@@H](C(=O)[O-])c2cn(C3CCCCC3)cn2)cn1.O.[Na+] [(R)-3-[6-amino-pyridin-3-yl]-2-(1-cyclohexyl-1 H-imidazol-4-yl)-propionic acid sodium salt monohydrate]
Change In Mass (%) Desorption ([1]; Target RH 0.2 %): -4.4% | Change In Mass (%) Desorption ([1]; Target RH 10.0 %): -0.6% | Change In Mass (%) Sorption ([1]; Target RH 10.0 %): -3.7% | Change In Mass (%) Desorption ([1]; Target RH 20.0 %): -0.1% | Change In Mass (%) Sorption ([1]; Target RH 20.0 %): -0.2% | Change In Mass (%) Sorption ([1]; Target RH 30.0 %): 0.2% | Change In Mass (%) Desorption ([1]; Target RH 30.1 %): 0.1% | Change In Mass (%) Sorption ([1]; Target RH 40.0 %): 0.6% | Change In Mass (%) Sorption ([1]; Target RH 50.0 %): 0.9% | Change In Mass (%) Sorption ([1]; Target RH 60.0 %): 1.5% | Change In Mass (%) Sorption ([1]; Target RH 70.0 %): 4.0% | Change In Mass (%) Sorption ([1]; Target RH 75.0 %): 8.2% | Change In Mass (%) Sorption ([1]; Target RH 80.1 %): 11.9% | Change In Mass (%) Sorption ([1]; Target RH 85.1 %): 17.7% | Change In Mass (%) Sorption ([1]; Target RH 90.0 %): 38.2% | Change In Mass (%) Sorption ([1]; Target RH 94.9 %): 67.4%

CNc1nccc(-c2cc3cc(C(=O)N[C@@H](CN(c4ccccc4)c4ncccn4)C(N)=O)ccc3[nH]2)n1.O.O [Hydrate 1, 2-(2-methylamino-pyrimidin-4-yl)-1 H-indole-5-carboxylic acid [(S)-1-carbamoyl-2-(phenyl-pyrimidin-2-yl-amino)-ethyl]-amide dihydrate]
Solubility [g in 100 g of solvent] ([3]; Temperature 38.6 °C): 2.11 g in 100 g of solvent | Solubility [g in 100 g of solvent] ([3]; Temperature 49.7 °C): 3.39 g in 100 g of solvent | Solubility [g in 100 g of solvent] ([3]; Temperature 57.4 °C): 5.04 g in 100 g of solvent | solubility compared with polymorph 1 [3]: higher solubility than polymorph 1 | hygroscopicity ([4]; result in words): low hygroscopicity

CNc1nccc(-c2cc3cc(C(=O)N[C@@H](CN(c4ccccc4)c4ncccn4)C(N)=O)ccc3[nH]2)n1.O.O.O.O.O.O [Hydrate 2, 2-(2-methylamino-pyrimidin-4-yl)-1 H-indole-5-carboxylic acid [(S)-1-carbamoyl-2-(phenyl-pyrimidin-2-yl-amino)-ethyl]-amide hexahydrate]
Solubility [g in 100 g of solvent] ([3]; Temperature 36.8 °C): 0.50 g in 100 g of solvent | Solubility [g in 100 g of solvent] ([3]; Temperature 46.1 °C): 1.02 g in 100 g of solvent | Solubility [g in 100 g of solvent] ([3]; Temperature 55.9 °C): 2.61 g in 100 g of solvent | solubility compared with polymorph 1 [3]: higher solubility than polymorph 1

CNc1nccc(-c2cc3cc(C(=O)N[C@@H](CN(c4ccccc4)c4ncccn4)C(N)=O)ccc3[nH]2)n1 [Polymorph 2, 2-(2-methylamino-pyrimidin-4-yl)-1 H-indole-5-carboxylic acid [(S)-1-carbamoyl-2-(phenyl-pyrimidin-2-yl-amino)-ethyl]-amide]
Solubility [g in 100 g of solvent] ([3]; Temperature 46.0 °C): 1.02 g in 100 g of solvent | Solubility [g in 100 g of solvent] ([3]; Temperature 57.5 °C): 2.48 g in 100 g of solvent | solubility compared with polymorph 1 [3]: higher solubility than polymorph 1 | weight increase in the sorption step ([4]; Relative humidity 40 %, first cycle): 0.2% | weight increase in the sorption step ([4]; Relative humidity 40 %, second cycle): 0.0% | weight increase in the sorption step ([4]; Relative humidity 60 %, first cycle): 0.3% | weight increase in the sorption step ([4]; Relative humidity 60 %, second cycle): 0.1% | weight increase in the sorption step ([4]; Relative humidity 80 %, first cycle): 0.4% | weight increase in the sorption step ([4]; Relative humidity 80 %, second cycle): 0.3% | weight increase in the sorption step ([4]; Relative humidity 95 %, first cycle): 0.8% | weight increase in the sorption step ([4]; Relative humidity 95 %, second cycle): 0.6% | water uptake (hygroscopicity) ([4]; at a high relative humidity of 80 %): about 0.4%
